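Five concentrations, 48 hours, 96-well plates. Here, GI50 denotes the concentration required for 50% inhibition of growth. At the TGI there is no net growth.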
Assays:
Experiment in all cases: NCI anticancer screen, dose series, 48 h
[1] = test system: SF-268 CNS
[2] = test system: NCI/ADR-RES ovarian
[3] = test system: UACC-62 melanoma
[4] = test system: U251 CNS
[5] = test system: SK-MEL-28 melanoma
[6] = test system: NCI-H23 lung
[7] = test system: 786-0 renal
[8] = test system: IGROV1 ovarian
[9] = test system: A498 renal
[10] = test system: MOLT-4 leukemia

CC(C)CCC[C@@H](C)[C@H]1CCC2C3CC=C4C[C@@H](Oc5c6ccccc6nc6ccccc56)CCC4C3CCC21 (some centres undefined) was tested, and the TGI [1] was > 50 µM, the TGI [2] was > 50 µM and the TGI [3] was > 50 µM. For the same compound, the TGI [4] was > 50 µM, the TGI [5] was > 50 µM and the TGI [6] was > 50 µM. For the same compound, the TGI [7] was > 50 µM and the TGI [8] was > 50 µM.
With CCOC(=O)Oc1cc2c(c(OC)c1OC)-c1ccc(SC)c(=O)cc1C(NC(=O)C(F)(F)F)CC2 (centres undefined) the GI50 [2] was 0.023 µM, the TGI [3] was > 100 µM and the TGI [4] was 0.0148 µM. For the same compound, the TGI [5] was > 100 µM, the GI50 [6] was < 0.001 µM and the TGI [7] was 13 µM. It also gave a TGI [8] of 0.149 µM and a TGI [9] of 0.554 µM.
For CCOc1cc(NC(C)=O)ccc1C(=O)NN1C(=O)C(Oc2ccccc2)C1c1ccccc1 (centres undefined), the TGI [10] was 20.4 µM, the TGI [1] was > 100 µM and the TGI [2] was > 100 µM. The TGI [3] was > 100 µM, the TGI [5] was > 100 µM and the TGI [6] was > 100 µM. The TGI [7] was > 100 µM, the TGI [8] was > 100 µM and the TGI [9] was > 100 µM.
For Cc1ccc(S(=O)(=O)/N=C(\NN)Nc2ccc(Cl)cc2)cc1, the TGI [10] was > 100 µM, the TGI [2] was > 100 µM and the TGI [3] was > 100 µM. The TGI [4] was > 100 µM, the TGI [5] was > 100 µM and the TGI [6] was > 100 µM. For the same compound, the TGI [7] was > 100 µM, the TGI [8] was > 100 µM and the TGI [9] was > 100 µM.
O=C(Nc1nc2c(=O)[nH]cnc2s1)c1ccccc1 was tested, and the TGI [1] was > 100 µM, the TGI [2] was > 100 µM and the TGI [3] was > 100 µM. The TGI [4] was > 100 µM, the TGI [5] was > 100 µM and the TGI [6] was > 100 µM. The TGI [7] was > 100 µM, the TGI [8] was > 100 µM and the TGI [9] was > 100 µM.
N=c1nnc(=O)c2c(s1)-n1ncc(C(=O)O)c1NN2 was tested, and the TGI [10] was > 100 µM, the TGI [1] was > 100 µM and the TGI [3] was > 100 µM. The TGI [4] was > 100 µM, the TGI [5] was > 100 µM and the TGI [6] was > 100 µM. For the same compound, the TGI [7] was > 100 µM and the TGI [8] was > 100 µM.
COC(=O)c1cc(NC(=O)c2cc(NC(=O)c3cc([N+](=O)[O-])cn3C)cn2C)cn1C was tested, and the TGI [10] was > 100 µM, the TGI [1] was > 100 µM and the TGI [2] was > 100 µM. The TGI [3] was > 100 µM, the TGI [4] was > 100 µM and the TGI [5] was > 100 µM. For the same compound, the TGI [6] was > 100 µM, the TGI [7] was > 100 µM and the TGI [9] was > 100 µM.
For COc1cc2c(c(OC)c1OC)-c1ccc(SC)c(=O)cc1[C@@H](OC(C)=O)CC2, the TGI [10] was > 100 µM, the TGI [1] was 25.1 µM and the TGI [3] was > 100 µM. For the same compound, the TGI [4] was > 100 µM, the TGI [5] was > 100 µM and the TGI [6] was 0.194 µM. For the same compound, the TGI [7] was > 100 µM.
With Cc1ccsc1/C=N/Nc1cc(C)c2cccc(C)c2n1 the TGI [1] was > 100 µM, the TGI [2] was > 100 µM and the TGI [3] was > 100 µM. The TGI [4] was > 100 µM, the TGI [5] was > 100 µM and the TGI [6] was > 100 µM. For the same compound, the TGI [7] was > 100 µM, the TGI [8] was > 100 µM and the TGI [9] was > 100 µM.
For CCOc1ccc(/C=C(\Cl)c2ccc(OC)c(OC)c2)cc1, the TGI [10] was > 100 µM, the TGI [1] was > 100 µM and the TGI [3] was > 100 µM. The TGI [4] was > 100 µM, the TGI [5] was > 100 µM and the TGI [6] was > 100 µM. The TGI [7] was > 100 µM, the TGI [8] was > 100 µM and the TGI [9] was > 100 µM.
With CC1(C)N=C(C(N)=O)c2ncn(CCO)c2N1 the TGI [1] was > 100 µM, the TGI [2] was > 100 µM and the TGI [3] was > 100 µM. For the same compound, the TGI [4] was > 100 µM, the TGI [5] was > 100 µM and the TGI [6] was > 100 µM. For the same compound, the TGI [7] was > 100 µM, the TGI [8] was > 100 µM and the TGI [9] was > 100 µM.
With O=C1O/C(=C(\Br)c2cccc3ccccc23)c2ccccc21 the TGI [10] was 46.7 µM, the TGI [1] was > 55.7 µM and the TGI [3] was > 55.6 µM. For the same compound, the TGI [4] was > 100 µM, the TGI [5] was > 50.2 µM and the TGI [6] was > 55.8 µM. The TGI [7] was 31.4 µM, the TGI [8] was > 57.9 µM and the TGI [9] was 34.6 µM.
In the case of CC(=O)[C@@H]1CCC=C2CC[C@]3(C)[C@@H](CC[C@@H]4[C@@]5(C)CCCNC(C)(C)[C@@H]5CC[C@]43C)[C@H]21, the GI50 [2] is reported as 1.98 µM, the TGI [2] is reported as 3.8 µM and the GI50 [3] is reported as 1.73 µM. It also gave a TGI [3] of 3.16 µM, a GI50 [4] of 1.76 µM and a TGI [4] of 3.27 µM. It also gave a GI50 [5] of 1.81 µM, a TGI [5] of 3.35 µM and a GI50 [8] of 1.69 µM. It also gave a TGI [8] of 3.28 µM, a GI50 [9] of 2.03 µM and a TGI [9] of 3.79 µM.
For CC(C)SC(C)(NC(=O)C1C(C)(C)CCC1(C)C)C(=O)O (centres undefined), the TGI [10] was > 100 µM, the TGI [1] was > 100 µM and the TGI [2] was > 100 µM. For the same compound, the TGI [4] was > 100 µM, the TGI [5] was > 100 µM and the TGI [6] was > 100 µM. The TGI [7] was > 100 µM and the TGI [9] was > 100 µM.
CCCCCCCC(=O)OC(CBr)COC(=O)C(C)(C)C (centres undefined) was tested, and the TGI [10] was 75.2 µM, the TGI [1] was > 100 µM and the TGI [3] was > 100 µM. For the same compound, the TGI [4] was > 100 µM, the TGI [5] was > 100 µM and the TGI [6] was > 100 µM. For the same compound, the TGI [7] was > 100 µM, the TGI [8] was > 100 µM and the TGI [9] was > 100 µM.
O=C(Nc1nc2ccccc2n1Cc1ccccc1)NC12CC3CC(CC(C3)C1)C2 was tested, and the TGI [10] was > 100 µM, the TGI [1] was 35.5 µM and the TGI [3] was > 100 µM. The TGI [4] was > 100 µM, the TGI [5] was > 100 µM and the TGI [6] was > 100 µM. For the same compound, the TGI [7] was 92.9 µM and the TGI [8] was > 100 µM.
For O=C(NCCC(F)(F)C(F)(F)C(F)(F)C(F)(F)F)NC1OC(CO)C(O)C(O)C1O (centres undefined), the TGI [10] was > 100 µM, the TGI [1] was > 100 µM and the TGI [2] was > 100 µM. The TGI [3] was > 100 µM, the TGI [4] was > 100 µM and the TGI [5] was > 100 µM. For the same compound, the TGI [6] was > 100 µM, the TGI [7] was > 100 µM and the TGI [8] was > 100 µM.

Reference: PubChem BioAssay (NCI)
